Values joined by “and” are separate entries in the source; they are usually repeats but may differ in a detail not shown here. Equal values may be shown once. Blank lines part the entries; values can stand above or below the compound they belong to.
Key:
Assay type in all cases: cell-based
A. niger ATCC # 16404 = test: Microtiter plate MIC / synergy test (Kull synergy index), mold, PDB medium; conditions: for Ca: MIC of first component (A) alone (QA) / Cb: MIC of MBIT alone (QB): PDB medium, 25° C.; for Cb: ppm AI of MBIT alone (MIC, QB) / Ca: ppm AI of first component (A) alone (MIC, QA): A. niger; for Ca: MIC of TCMTB alone: component alone
From the text: (§1) One measure of synergism is the industrially accepted method described by Kull, F. C.; Eisman, P. C.; Sylwestrowicz, H. D. and Mayer, R. L., in Applied Microbiology 9:538-541 (1961), using the ratio determined by the formula: Qa/QA+Qb/QB=Synergy Index (“SI”) wherein: • QA=concentration of compound A (first component) in ppm, acting alone, which produced an end point (MIC of Compound A). • Qa=concentration of compound A in ppm, in the mixture, which produced an end point. • QB=concentration of compound B (second component) in ppm, acting alone, which produced an end point (MIC of Compound B). • Qb=concentration of compound B in ppm, in the mixture, which produced an end point.
(§2) When the sum of Qa/QA and Qb/QB is greater than one, antagonism is indicated. […] The lower the SI, the greater the synergy shown by that particular mixture. The minimum inhibitory concentration (MIC) of a microbicide is the lowest concentration tested under a specific set of conditions that prevents the growth of added microorganisms.
(§3) Synergy tests were conducted using standard microtiter plate assays with media designed for optimal growth of the test microorganism. Minimal salt medium supplemented with 0.2% glucose and 0.1% yeast extract (M9GY medium) was used for testing bacteria; Potato Dextrose Broth (PDB medium) was used for testing yeast and mold. In this method, a wide range of combinations of microbicides was tested by conducting high resolution MIC assays in the presence of various concentrations of MBIT. High resolution MICs were determined by adding varying amounts of microbicide to one column of a microtitre plate and doing subsequent […] dilutions using an automated liquid handling system to obtain a series of endpoints ranging from 2 ppm to 10,000 ppm active ingredient.
(§4) The synergy of the combinations of the present invention was determined against several microorganisms, as described in the Tables below. The bacteria were used at a concentration of about 5×10^6 bacteria per mL and the yeast and mold at 5×10^5 fungi per mL. These microorganisms are representative of natural contaminants in many consumer and industrial applications. […] (yeast and mold) or 30° C. (bacteria).
(§5) In each test, Second Component (B) was MBIT and the First Component (A) was the other commercial microbicide.

C. albicans ATCC # 10231 = test: Microtiter plate MIC / synergy test (Kull synergy index), yeast, PDB medium; conditions: for Ca: MIC of first component (A) alone (QA) / Cb: MIC of MBIT alone (QB): PDB medium, 25° C.; for Cb: ppm AI of MBIT alone (MIC, QB) / Ca: ppm AI of first component (A) alone (MIC, QA): C. albicans; for Ca: MIC of TCMTB alone: component alone
From the text: as §1, §2, §3, §4, §5

[1] = test system: Ps. aeruginosa ATCC # 9027; test: Microtiter plate MIC / synergy test (Kull synergy index), bacteria, M9GY medium; conditions: for Cb: ppm AI of MBIT alone (MIC, QB) / Ca: ppm AI of first component (A) alone (MIC, QA): Ps. aeruginosa
Experimental: as §2, §3
The bacteria were used at a concentration of about 5×10^6 bacteria per mL and the yeast and mold at 5×10^5 fungi per mL. These microorganisms are representative of natural contaminants in many consumer and industrial applications. […] (yeast and mold) or 30° C. (bacteria).
as §5

S. aureus ATCC # 6538 = test: as above; conditions: for Ca: MIC of first component (A) alone (QA) / Cb: MIC of MBIT alone (QB): M9GY medium, 30° C.; for Cb: ppm AI of MBIT alone (MIC, QB) / Ca: ppm AI of first component (A) alone (MIC, QA): S. aureus
From the text: as §1, §2, §3, §4, §5

[2] = A. niger ATCC # 16404, contact time 3 days
[3] = A. niger ATCC # 16404, contact time 7 days
[4] = C. albicans ATCC # 10231, contact time 48 hrs
[5] = C. albicans ATCC # 10231, contact time 72 hrs
[6] = Ps. aeruginosa ATCC # 9027, contact time 48 hrs, M9GY medium, 30° C.
[7] = S. aureus ATCC # 6538, contact time 24 hrs
[8] = S. aureus ATCC # 6538, contact time 48 hrs

- Ca: MIC of first component (A) alone (QA) (A. niger ATCC # 16404; [2]): 650 ppm AI
- Ca: MIC of first component (A) alone (QA) (A. niger ATCC # 16404; [3]): 875 ppm AI
- Ca: MIC of first component (A) alone (QA) (C. albicans ATCC # 10231; [4]): 65 ppm AI
- Ca: MIC of first component (A) alone (QA) (C. albicans ATCC # 10231; [5]): 87.5 ppm AI
- Ca: MIC of first component (A) alone (QA) [1, 6]: >11000 ppm AI
- Ca: MIC of first component (A) alone (QA) (S. aureus ATCC # 6538; [7]): 425 ppm AI
- Ca: MIC of first component (A) alone (QA) (S. aureus ATCC # 6538; [8]): 425 ppm AI
SMILES: CCCCCCCC(=O)O [Caprylic acid]

SMILES: Cn1sc2ccccc2c1=O [MBIT, N-methyl-1,2-benzisothiazolin-3-one]
- Cb: MIC of MBIT alone (QB) (A. niger ATCC # 16404; [2]): 37.5 ppm AI and 75 ppm AI
- Cb: MIC of MBIT alone (A. niger ATCC # 16404; A. niger ATCC # 16404, contact time 3 days, component alone (Table 8)): 75 ppm AI
- Cb: MIC of MBIT alone (A. niger ATCC # 16404; A. niger ATCC # 16404, contact time 3 days, component alone (Table 9)): 37.5 ppm AI
- Cb: MIC of MBIT alone (A. niger ATCC # 16404; A. niger ATCC # 16404, contact time 3 days, component alone (Table 10)): 37.5 ppm AI
- Cb: MIC of MBIT alone (QB) (A. niger ATCC # 16404; [3]): 150 ppm AI
- Cb: MIC of MBIT alone (A. niger ATCC # 16404; A. niger ATCC # 16404, contact time 7 days, component alone (Table 8)): 150 ppm AI
- Cb: MIC of MBIT alone (A. niger ATCC # 16404; A. niger ATCC # 16404, contact time 7 days, component alone (Table 9)): 150 ppm AI
- Cb: MIC of MBIT alone (A. niger ATCC # 16404; A. niger ATCC # 16404, contact time 7 days, component alone (Table 10)): 150 ppm AI
- Cb: ppm AI of MBIT alone (MIC, QB) (A. niger ATCC # 16404; contact time 3 days): 37.5 ppm AI and 75 ppm AI
- Cb: ppm AI of MBIT alone (MIC, QB) (A. niger ATCC # 16404; contact time 7 days): 150 ppm AI
- Cb: MIC of MBIT alone (QB) (C. albicans ATCC # 10231; [4]): 30 ppm AI
- Cb: MIC of MBIT alone (C. albicans ATCC # 10231; C. albicans ATCC # 10231, contact time 48 hrs, component alone (Table 8)): 30 ppm AI
- Cb: MIC of MBIT alone (C. albicans ATCC # 10231; C. albicans ATCC # 10231, contact time 48 hrs, component alone (Table 9)): 30 ppm AI
- Cb: MIC of MBIT alone (C. albicans ATCC # 10231; C. albicans ATCC # 10231, contact time 48 hrs, component alone (Table 10)): 30 ppm AI
- Cb: MIC of MBIT alone (QB) (C. albicans ATCC # 10231; [5]): 60 ppm AI and 30 ppm AI
- Cb: MIC of MBIT alone (C. albicans ATCC # 10231; C. albicans ATCC # 10231, contact time 72 hrs, component alone (Table 8)): 30 ppm AI
- Cb: MIC of MBIT alone (C. albicans ATCC # 10231; C. albicans ATCC # 10231, contact time 72 hrs, component alone (Table 9)): 30 ppm AI
- Cb: MIC of MBIT alone (C. albicans ATCC # 10231; C. albicans ATCC # 10231, contact time 72 hrs, component alone (Table 10)): 60 ppm AI
- Cb: ppm AI of MBIT alone (MIC, QB) (C. albicans ATCC # 10231; contact time 48 hrs): 30 ppm AI
- Cb: ppm AI of MBIT alone (MIC, QB) (C. albicans ATCC # 10231; contact time 72 hrs): 30 ppm AI
- Cb: MIC of MBIT alone (QB) ([1]; Ps. aeruginosa ATCC # 9027, contact time 24 hrs, M9GY medium, 30° C.): 75 ppm AI
- Cb: MIC of MBIT alone ([1]; Ps. aeruginosa ATCC # 9027, contact time 24 hrs, component alone (Table 8)): 75 ppm AI
- Cb: MIC of MBIT alone ([1]; Ps. aeruginosa ATCC # 9027, contact time 24 hrs, component alone (Table 9)): 75 ppm AI
- Cb: MIC of MBIT alone (QB) [1, 6]: 125 ppm AI
- Cb: MIC of MBIT alone ([1]; Ps. aeruginosa ATCC # 9027, contact time 48 hrs, component alone (Table 8)): 125 ppm AI
- Cb: MIC of MBIT alone ([1]; Ps. aeruginosa ATCC # 9027, contact time 48 hrs, component alone (Table 9)): 125 ppm AI
- Cb: MIC of MBIT alone ([1]; Ps. aeruginosa ATCC # 9027, contact time 48 hrs, component alone (Table 10)): 125 ppm AI
- Cb: ppm AI of MBIT alone (MIC, QB) ([1]; contact time 24 hrs): 75 ppm AI
- Cb: ppm AI of MBIT alone (MIC, QB) ([1]; contact time 48 hrs): 125 ppm AI
- Cb: MIC of MBIT alone (QB) (S. aureus ATCC # 6538; [7]): 15 ppm AI and 30 ppm AI
- Cb: MIC of MBIT alone (S. aureus ATCC # 6538; S. aureus ATCC # 6538, contact time 24 hrs, component alone (Table 8)): 30 ppm AI
- Cb: MIC of MBIT alone (S. aureus ATCC # 6538; S. aureus ATCC # 6538, contact time 24 hrs, component alone (Table 9)): 30 ppm AI
- Cb: MIC of MBIT alone (S. aureus ATCC # 6538; S. aureus ATCC # 6538, contact time 24 hrs, component alone (Table 10)): 15 ppm AI
- Cb: MIC of MBIT alone (QB) (S. aureus ATCC # 6538; [8]): 30 ppm AI
- Cb: MIC of MBIT alone (S. aureus ATCC # 6538; S. aureus ATCC # 6538, contact time 48 hrs, component alone (Table 8)): 30 ppm AI
- Cb: MIC of MBIT alone (S. aureus ATCC # 6538; S. aureus ATCC # 6538, contact time 48 hrs, component alone (Table 9)): 30 ppm AI
- Cb: ppm AI of MBIT alone (MIC, QB) (S. aureus ATCC # 6538; contact time 24 hrs): 15 ppm AI and 30 ppm AI
- Cb: ppm AI of MBIT alone (MIC, QB) (S. aureus ATCC # 6538; contact time 48 hrs): 30 ppm AI

SMILES: O=C([O-])CNCO.[Na+] [SUTTOCIDE A, sodium hydroxymethylglycinate]
- Ca: ppm AI of first component (A) alone (MIC, QA) (A. niger ATCC # 16404; contact time 3 days): 875 ppm AI
- Ca: ppm AI of first component (A) alone (MIC, QA) (A. niger ATCC # 16404; contact time 7 days): 1100 ppm AI
- Ca: ppm AI of first component (A) alone (MIC, QA) (C. albicans ATCC # 10231; contact time 48 hrs): 3000 ppm AI
- Ca: ppm AI of first component (A) alone (MIC, QA) (C. albicans ATCC # 10231; contact time 72 hrs): 3000 ppm AI
- Ca: ppm AI of first component (A) alone (MIC, QA) ([1]; contact time 24 hrs): 87.5 ppm AI
- Ca: ppm AI of first component (A) alone (MIC, QA) ([1]; contact time 48 hrs): 110 ppm AI
- Ca: ppm AI of first component (A) alone (MIC, QA) (S. aureus ATCC # 6538; contact time 24 hrs): 110 ppm AI
- Ca: ppm AI of first component (A) alone (MIC, QA) (S. aureus ATCC # 6538; contact time 48 hrs): 110 ppm AI

- Ca: MIC of TCMTB alone (A. niger ATCC # 16404; [2]): 3 ppm AI
- Ca: MIC of TCMTB alone (A. niger ATCC # 16404; [3]): 8.75 ppm AI
- Ca: MIC of TCMTB alone (C. albicans ATCC # 10231; [4]): 4.25 ppm AI
- Ca: MIC of TCMTB alone (C. albicans ATCC # 10231; [5]): 5.25 ppm AI
- Ca: MIC of TCMTB alone ([1]; Ps. aeruginosa ATCC # 9027, contact time 48 hrs, component alone): 212.5 ppm AI
- Ca: MIC of TCMTB alone (S. aureus ATCC # 6538; S. aureus ATCC # 6538, contact time 24 hrs, component alone): 26.25 ppm AI
SMILES: N#CSCSc1nc2ccccc2s1 [TCMTB]

Source: US8188127B2, “Microbicidal composition” (Rohm and Haas Company, priority 2007, dated 2012)
